These cell lines were tested with CC1(C)CCC(CN2CCN(c3ccc(C(=O)NS(=O)(=O)c4ccc(NCC5CCOCC5)c([N+](=O)[O-])c4)c(Oc4cnc5[nH]ccc5c4)c3)CC2)=C(c2ccc(Cl)cc2)C1 [Venetoclax] + N=C(N)NC(=N)NCCc1ccccc1 [Phenformin] (partner 250 µM) (assay: relative viability (nuclei count vs DMSO), 5 days (fraction); higher = more cells survive). Settings: first compound 0.01 µM.
In short: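 Lung cancer cell lines were pin-tool dosed in 1536-well plates on the day after seeding, with either a lone drug or a fixed anchor-drug dose plus five library-drug doses (not always all listed) in √10 steps. Nuclei were counted on 4× images after 5 days. Relative viability is the ratio of treated-well to vehicle-well nuclei counts, with each value a median of duplicate plates.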
For EMC-BAC-2, the relative viability was 0.483. In the case of NCI-H2126, the relative viability is reported as 0.528. HCC-44 showed a relative viability of 0.362. Cell Line NCI-H1734 has a relative viability of 0.396. Cell Line NCI-H650 has a relative viability of 0.439. Cell Line LK-2 has a relative viability of 0.479. With NCI-H2228 the relative viability was 0.366. Cell Line NCI-H2342 has a relative viability of 0.763. SK-MES-1 was tested, and the relative viability was 0.616. For HARA, the relative viability was 0.415. With COR-L23 the relative viability was 0.42. In the case of COR-L 105, the relative viability is reported as 0.583. Work on LC-2-ad yielded a relative viability of 0.595. With LXF-289 the relative viability was 0.482. ChaGo-K-1 gave a relative viability of 0.539. In the case of NCI-H2170, the relative viability is reported as 0.319. Work on NCI-H322M yielded a relative viability of 0.781. Cell Line HCC-78 has a relative viability of 0.782. With A549 the relative viability was 0.141. SW 900 gave a relative viability of 0.385. With NCI-H596 the relative viability was 0.818. NCI-H1563 showed a relative viability of 0.728.

Same assay, conditions: first compound 0.03162 µM
NCI-H522 gave a relative viability of 0.735. With NCI-H1623 the relative viability was 0.607. In the case of PC-14, the relative viability is reported as 0.747. NCI-H1666 showed a relative viability of 0.605. Work on NCI-H1755 yielded a relative viability of 0.616. NCI-H2023 gave a relative viability of 0.393. With EPLC-272H the relative viability was 0.312. Cell Line LCLC-97TM1 has a relative viability of 0.494. Work on PC-3 [JPC-3] yielded a relative viability of 0.51. LOU-NH91 gave a relative viability of 0.784. NCI-H647 showed a relative viability of 0.622. Cell Line NCI-H23 has a relative viability of 0.751. EMC-BAC-2 was tested, and the relative viability was 0.524. Work on NCI-H2126 yielded a relative viability of 0.56. Work on HCC-44 yielded a relative viability of 0.153. NCI-H1734 was tested, and the relative viability was 0.446. For NCI-H650, the relative viability was 0.487. Work on LK-2 yielded a relative viability of 0.605. With NCI-H2228 the relative viability was 0.322. For NCI-H2342, the relative viability was 0.531. With SK-MES-1 the relative viability was 0.685. Cell Line HARA has a relative viability of 0.406. Cell Line COR-L23 has a relative viability of 0.442. Cell Line COR-L 105 has a relative viability of 0.462. Work on LC-2-ad yielded a relative viability of 0.606. LXF-289 showed a relative viability of 0.538. In the case of ChaGo-K-1, the relative viability is reported as 0.489. With NCI-H2170 the relative viability was 0.415. With NCI-H322M the relative viability was 0.793. HCC-78 showed a relative viability of 0.776. In the case of A549, the relative viability is reported as 0.147. SW 900 gave a relative viability of 0.702. NCI-H596 showed a relative viability of 0.665. NCI-H1563 showed a relative viability of 0.649.

Same assay, conditions: first compound 0.1 µM
NCI-H522 showed a relative viability of 0.561. NCI-H1623 showed a relative viability of 0.597. PC-14 was tested, and the relative viability was 0.717. In the case of NCI-H1666, the relative viability is reported as 0.531. Cell Line NCI-H1755 has a relative viability of 0.573. NCI-H2023 showed a relative viability of 0.435. EPLC-272H showed a relative viability of 0.286. LCLC-97TM1 showed a relative viability of 0.461. PC-3 [JPC-3] was tested, and the relative viability was 0.487. Cell Line LOU-NH91 has a relative viability of 0.615. NCI-H647 gave a relative viability of 0.443. Work on NCI-H23 yielded a relative viability of 0.815. EMC-BAC-2 showed a relative viability of 0.519. NCI-H2126 showed a relative viability of 0.513. With HCC-44 the relative viability was 0.165. In the case of NCI-H1734, the relative viability is reported as 0.326. In the case of NCI-H650, the relative viability is reported as 0.438. Cell Line LK-2 has a relative viability of 0.491. For NCI-H2228, the relative viability was 0.234. NCI-H2342 gave a relative viability of 0.601. SK-MES-1 gave a relative viability of 0.69. With HARA the relative viability was 0.464. Work on COR-L23 yielded a relative viability of 0.413. Work on COR-L 105 yielded a relative viability of 0.462. For LC-2-ad, the relative viability was 0.551. LXF-289 showed a relative viability of 0.509. ChaGo-K-1 showed a relative viability of 0.429. NCI-H2170 was tested, and the relative viability was 0.399. NCI-H322M was tested, and the relative viability was 0.763. HCC-78 showed a relative viability of 0.699. Cell Line A549 has a relative viability of 0.129. SW 900 gave a relative viability of 0.528. With NCI-H596 the relative viability was 0.649. With NCI-H1563 the relative viability was 0.662.

Same assay, conditions: first compound 0.3162 µM
With NCI-H522 the relative viability was 0.613. In the case of NCI-H1623, the relative viability is reported as 0.64. With PC-14 the relative viability was 0.709. Work on NCI-H1666 yielded a relative viability of 0.582. For NCI-H1755, the relative viability was 0.629. NCI-H2023 showed a relative viability of 0.434. Work on EPLC-272H yielded a relative viability of 0.321. LCLC-97TM1 showed a relative viability of 0.449. In the case of PC-3 [JPC-3], the relative viability is reported as 0.468. With LOU-NH91 the relative viability was 0.742. Cell Line NCI-H647 has a relative viability of 0.481. Work on NCI-H23 yielded a relative viability of 0.8. In the case of EMC-BAC-2, the relative viability is reported as 0.512. NCI-H2126 gave a relative viability of 0.582. Work on HCC-44 yielded a relative viability of 0.161. NCI-H1734 showed a relative viability of 0.411. For NCI-H650, the relative viability was 0.488. LK-2 gave a relative viability of 0.617. Work on NCI-H2228 yielded a relative viability of 0.422. Cell Line NCI-H2342 has a relative viability of 0.568. With SK-MES-1 the relative viability was 0.601. HARA gave a relative viability of 0.467. Cell Line COR-L23 has a relative viability of 0.43. Cell Line COR-L 105 has a relative viability of 0.493. For LC-2-ad, the relative viability was 0.616. For LXF-289, the relative viability was 0.503. ChaGo-K-1 showed a relative viability of 0.49. NCI-H2170 gave a relative viability of 0.368. With NCI-H322M the relative viability was 0.886. In the case of HCC-78, the relative viability is reported as 0.671. For A549, the relative viability was 0.164. Work on SW 900 yielded a relative viability of 0.706. NCI-H596 gave a relative viability of 0.809. NCI-H1563 was tested, and the relative viability was 0.701.

Same assay, conditions: first compound 1 µM
NCI-H522 was tested, and the relative viability was 0.637. NCI-H1623 showed a relative viability of 0.63. With PC-14 the relative viability was 0.499. Cell Line NCI-H1666 has a relative viability of 0.56. With NCI-H1755 the relative viability was 0.555. Cell Line NCI-H2023 has a relative viability of 0.378. In the case of EPLC-272H, the relative viability is reported as 0.295. Work on LCLC-97TM1 yielded a relative viability of 0.385. In the case of PC-3 [JPC-3], the relative viability is reported as 0.513. In the case of LOU-NH91, the relative viability is reported as 0.698. NCI-H647 was tested, and the relative viability was 0.377. NCI-H23 showed a relative viability of 0.719. With EMC-BAC-2 the relative viability was 0.475. Cell Line NCI-H2126 has a relative viability of 0.51. HCC-44 gave a relative viability of 0.182. Cell Line NCI-H1734 has a relative viability of 0.358. Work on NCI-H650 yielded a relative viability of 0.435. For LK-2, the relative viability was 0.357. In the case of NCI-H2228, the relative viability is reported as 0.408. For NCI-H2342, the relative viability was 0.563. In the case of SK-MES-1, the relative viability is reported as 0.511. For HARA, the relative viability was 0.447. For COR-L23, the relative viability was 0.423. COR-L 105 showed a relative viability of 0.458. LC-2-ad was tested, and the relative viability was 0.565. For LXF-289, the relative viability was 0.505. ChaGo-K-1 was tested, and the relative viability was 0.453. In the case of NCI-H2170, the relative viability is reported as 0.34. In the case of NCI-H322M, the relative viability is reported as 0.803. Cell Line HCC-78 has a relative viability of 0.606. A549 showed a relative viability of 0.129. Cell Line SW 900 has a relative viability of 0.623. NCI-H596 gave a relative viability of 0.659. NCI-H1563 was tested, and the relative viability was 0.659.
